Molecules are shown by their SMILES.

The term ΔTm denotes the change in melting temperature against a reference sample.

For experiment [1], the target named is Calcium/calmodulin-dependent protein kinase kinase 2 (Homo sapiens, UniProt Q96RR4).
Experiment [2] deals with TRAF2 and NCK-interacting protein kinase (Homo sapiens) (UniProt Q9UKE5).
Experiment [3] has as its target T1, Lymphokine-activated killer T-cell-originated protein kinase (Homo sapiens) (UniProt Q96KB5).
T1 sequence (whole entry): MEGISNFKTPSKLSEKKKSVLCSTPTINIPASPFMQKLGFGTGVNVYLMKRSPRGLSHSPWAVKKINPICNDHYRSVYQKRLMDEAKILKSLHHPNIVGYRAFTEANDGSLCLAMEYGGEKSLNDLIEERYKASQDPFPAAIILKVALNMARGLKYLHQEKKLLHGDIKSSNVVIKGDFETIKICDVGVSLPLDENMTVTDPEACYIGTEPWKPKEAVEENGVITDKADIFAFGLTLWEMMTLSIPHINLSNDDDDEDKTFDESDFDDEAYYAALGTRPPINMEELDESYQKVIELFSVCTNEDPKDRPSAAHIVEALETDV

The target of experiment [4] is T2, Myotonin-protein kinase (Homo sapiens) (UniProt Q09013).
T2 sequence (whole entry): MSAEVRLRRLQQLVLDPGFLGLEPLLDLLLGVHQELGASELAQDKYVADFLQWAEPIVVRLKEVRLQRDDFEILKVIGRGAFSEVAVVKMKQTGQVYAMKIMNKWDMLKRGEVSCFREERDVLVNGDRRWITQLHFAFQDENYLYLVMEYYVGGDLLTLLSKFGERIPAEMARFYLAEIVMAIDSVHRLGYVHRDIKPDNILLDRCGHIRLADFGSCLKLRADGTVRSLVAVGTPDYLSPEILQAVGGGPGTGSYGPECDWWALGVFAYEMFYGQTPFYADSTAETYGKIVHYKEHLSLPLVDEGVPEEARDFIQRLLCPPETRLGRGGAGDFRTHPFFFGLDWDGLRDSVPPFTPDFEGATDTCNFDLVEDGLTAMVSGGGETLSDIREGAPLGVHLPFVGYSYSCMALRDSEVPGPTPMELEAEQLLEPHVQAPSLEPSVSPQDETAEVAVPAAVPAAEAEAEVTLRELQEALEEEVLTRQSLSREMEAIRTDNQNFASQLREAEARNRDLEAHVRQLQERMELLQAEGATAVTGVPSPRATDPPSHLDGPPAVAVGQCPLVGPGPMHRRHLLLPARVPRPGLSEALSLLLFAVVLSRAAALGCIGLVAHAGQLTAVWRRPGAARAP

For experiment [5], the target named is Glycogen synthase kinase-3 beta (Homo sapiens, UniProt P49841).
Experiment [6] deals with Serine/threonine-protein kinase 10 (Homo sapiens) (UniProt O94804).
For experiment [7], the target named is Cyclin-dependent kinase 6 (Homo sapiens) (UniProt Q00534).
Experiment [8] concerns the target Calcium/calmodulin-dependent protein kinase type II subunit beta (Homo sapiens) (UniProt Q13554).
Experiment [9] concerns the target T3, Serine/threonine-protein kinase 17A (Homo sapiens) (UniProt Q9UEE5).
T3 sequence (whole entry): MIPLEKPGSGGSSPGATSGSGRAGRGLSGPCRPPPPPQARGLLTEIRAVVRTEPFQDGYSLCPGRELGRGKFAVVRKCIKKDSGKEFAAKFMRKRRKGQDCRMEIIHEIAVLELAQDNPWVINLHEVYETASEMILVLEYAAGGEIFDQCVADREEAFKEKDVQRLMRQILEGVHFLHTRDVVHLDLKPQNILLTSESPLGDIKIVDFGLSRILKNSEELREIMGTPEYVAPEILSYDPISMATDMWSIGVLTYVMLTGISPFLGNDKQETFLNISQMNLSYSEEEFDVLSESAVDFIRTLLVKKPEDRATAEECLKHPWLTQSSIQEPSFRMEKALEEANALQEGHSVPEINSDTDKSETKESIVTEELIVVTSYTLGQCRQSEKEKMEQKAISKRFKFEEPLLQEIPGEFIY

The target of experiment [10] is Serine/threonine-protein kinase 26 (Homo sapiens) (UniProt Q9P289).
The target in experiment [11] is Dual specificity protein kinase CLK1 (Homo sapiens) (UniProt P49759).
Experiment [12] deals with Calcium/calmodulin-dependent protein kinase type II subunit delta (Homo sapiens) (UniProt Q13557).
For experiment [13], the target named is Ribosomal protein S6 kinase alpha-3 (Homo sapiens) (UniProt P51812).
Experiment [14] concerns the target T4, Serine/threonine-protein kinase VRK1 (Homo sapiens) (UniProt Q99986).
T4 sequence (whole entry): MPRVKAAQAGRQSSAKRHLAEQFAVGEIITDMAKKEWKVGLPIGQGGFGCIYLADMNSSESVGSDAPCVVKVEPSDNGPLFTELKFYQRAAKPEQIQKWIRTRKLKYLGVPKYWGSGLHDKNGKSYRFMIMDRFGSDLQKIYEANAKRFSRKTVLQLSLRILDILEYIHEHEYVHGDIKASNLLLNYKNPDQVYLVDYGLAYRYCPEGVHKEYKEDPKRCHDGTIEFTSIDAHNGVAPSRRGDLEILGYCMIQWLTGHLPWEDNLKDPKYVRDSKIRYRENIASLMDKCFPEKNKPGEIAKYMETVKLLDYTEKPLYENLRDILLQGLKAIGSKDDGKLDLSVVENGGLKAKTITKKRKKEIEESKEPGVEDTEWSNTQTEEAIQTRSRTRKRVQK

For experiment [15], the target named is Serine/threonine-protein kinase PAK 4 (Homo sapiens) (UniProt O96013).
Sequence of Serine/threonine-protein kinase PAK 4 (Homo sapiens) (O96013 whole entry, looked up): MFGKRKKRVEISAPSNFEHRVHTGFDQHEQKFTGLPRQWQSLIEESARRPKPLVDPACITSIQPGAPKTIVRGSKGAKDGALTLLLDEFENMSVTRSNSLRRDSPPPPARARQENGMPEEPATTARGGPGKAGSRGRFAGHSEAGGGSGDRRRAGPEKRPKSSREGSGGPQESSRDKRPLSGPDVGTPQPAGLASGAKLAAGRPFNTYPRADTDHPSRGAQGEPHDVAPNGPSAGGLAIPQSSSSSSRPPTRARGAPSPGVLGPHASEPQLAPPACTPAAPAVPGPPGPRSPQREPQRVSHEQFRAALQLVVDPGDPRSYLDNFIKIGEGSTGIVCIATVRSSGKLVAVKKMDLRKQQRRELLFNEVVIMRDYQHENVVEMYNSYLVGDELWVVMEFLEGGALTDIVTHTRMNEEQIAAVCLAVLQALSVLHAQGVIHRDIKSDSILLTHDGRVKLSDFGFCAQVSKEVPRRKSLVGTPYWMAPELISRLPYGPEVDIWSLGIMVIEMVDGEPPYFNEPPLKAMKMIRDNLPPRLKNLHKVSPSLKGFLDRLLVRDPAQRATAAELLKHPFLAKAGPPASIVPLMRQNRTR

Sequence of Serine/threonine-protein kinase 10 (Homo sapiens) (O94804 whole entry, looked up): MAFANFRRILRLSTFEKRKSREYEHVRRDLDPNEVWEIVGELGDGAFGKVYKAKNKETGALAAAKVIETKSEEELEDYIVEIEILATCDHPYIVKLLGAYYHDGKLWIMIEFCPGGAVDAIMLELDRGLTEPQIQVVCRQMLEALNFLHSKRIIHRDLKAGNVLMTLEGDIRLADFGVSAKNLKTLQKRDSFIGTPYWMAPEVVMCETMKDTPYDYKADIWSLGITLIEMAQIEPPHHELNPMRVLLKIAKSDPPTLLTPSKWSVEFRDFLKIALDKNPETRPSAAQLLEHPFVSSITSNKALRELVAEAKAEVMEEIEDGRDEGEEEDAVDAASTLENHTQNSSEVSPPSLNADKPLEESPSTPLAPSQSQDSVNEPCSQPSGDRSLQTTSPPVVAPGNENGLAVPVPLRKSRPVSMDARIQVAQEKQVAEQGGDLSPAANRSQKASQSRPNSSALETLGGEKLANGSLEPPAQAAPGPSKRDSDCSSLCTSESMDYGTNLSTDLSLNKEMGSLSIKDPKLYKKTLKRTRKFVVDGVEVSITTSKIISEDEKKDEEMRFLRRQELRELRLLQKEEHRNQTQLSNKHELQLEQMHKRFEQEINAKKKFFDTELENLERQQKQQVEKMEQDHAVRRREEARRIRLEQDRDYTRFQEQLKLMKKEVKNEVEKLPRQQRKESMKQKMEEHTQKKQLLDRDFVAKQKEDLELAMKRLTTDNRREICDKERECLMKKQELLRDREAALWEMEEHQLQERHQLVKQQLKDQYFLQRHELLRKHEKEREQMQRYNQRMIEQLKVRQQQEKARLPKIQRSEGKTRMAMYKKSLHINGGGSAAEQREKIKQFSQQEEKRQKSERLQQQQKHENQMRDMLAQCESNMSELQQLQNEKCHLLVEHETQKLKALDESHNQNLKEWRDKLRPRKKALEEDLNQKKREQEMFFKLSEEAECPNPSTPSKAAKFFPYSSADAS
Sequence of Serine/threonine-protein kinase 26 (Homo sapiens) (Q9P289 2-416 limits assumed): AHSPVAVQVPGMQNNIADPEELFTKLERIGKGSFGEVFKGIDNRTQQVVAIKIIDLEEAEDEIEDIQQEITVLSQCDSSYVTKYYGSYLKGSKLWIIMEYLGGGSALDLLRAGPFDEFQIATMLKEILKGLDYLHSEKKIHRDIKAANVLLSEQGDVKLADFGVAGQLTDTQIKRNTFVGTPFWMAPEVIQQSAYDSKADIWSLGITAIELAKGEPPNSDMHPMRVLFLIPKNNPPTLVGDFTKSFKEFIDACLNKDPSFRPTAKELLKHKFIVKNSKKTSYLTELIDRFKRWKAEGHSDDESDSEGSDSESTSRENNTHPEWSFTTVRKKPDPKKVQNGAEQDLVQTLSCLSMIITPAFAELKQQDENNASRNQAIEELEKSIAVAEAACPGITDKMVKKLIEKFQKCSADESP
Sequence of Glycogen synthase kinase-3 beta (P49841 whole entry, looked up): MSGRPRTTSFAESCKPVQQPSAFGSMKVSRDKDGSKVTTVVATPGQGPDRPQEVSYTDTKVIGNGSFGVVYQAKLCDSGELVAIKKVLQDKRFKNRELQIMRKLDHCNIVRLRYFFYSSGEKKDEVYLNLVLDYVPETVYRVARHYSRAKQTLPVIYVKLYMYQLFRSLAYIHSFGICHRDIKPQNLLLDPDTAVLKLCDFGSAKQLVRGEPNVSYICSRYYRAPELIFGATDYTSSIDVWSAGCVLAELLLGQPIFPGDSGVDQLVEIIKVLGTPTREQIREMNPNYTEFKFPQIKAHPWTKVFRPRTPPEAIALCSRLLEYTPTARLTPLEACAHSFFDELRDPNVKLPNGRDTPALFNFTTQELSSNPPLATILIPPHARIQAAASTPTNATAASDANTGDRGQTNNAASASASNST
Sequence of Calcium/calmodulin-dependent protein kinase type II subunit beta (Homo sapiens) (Q13554 whole entry): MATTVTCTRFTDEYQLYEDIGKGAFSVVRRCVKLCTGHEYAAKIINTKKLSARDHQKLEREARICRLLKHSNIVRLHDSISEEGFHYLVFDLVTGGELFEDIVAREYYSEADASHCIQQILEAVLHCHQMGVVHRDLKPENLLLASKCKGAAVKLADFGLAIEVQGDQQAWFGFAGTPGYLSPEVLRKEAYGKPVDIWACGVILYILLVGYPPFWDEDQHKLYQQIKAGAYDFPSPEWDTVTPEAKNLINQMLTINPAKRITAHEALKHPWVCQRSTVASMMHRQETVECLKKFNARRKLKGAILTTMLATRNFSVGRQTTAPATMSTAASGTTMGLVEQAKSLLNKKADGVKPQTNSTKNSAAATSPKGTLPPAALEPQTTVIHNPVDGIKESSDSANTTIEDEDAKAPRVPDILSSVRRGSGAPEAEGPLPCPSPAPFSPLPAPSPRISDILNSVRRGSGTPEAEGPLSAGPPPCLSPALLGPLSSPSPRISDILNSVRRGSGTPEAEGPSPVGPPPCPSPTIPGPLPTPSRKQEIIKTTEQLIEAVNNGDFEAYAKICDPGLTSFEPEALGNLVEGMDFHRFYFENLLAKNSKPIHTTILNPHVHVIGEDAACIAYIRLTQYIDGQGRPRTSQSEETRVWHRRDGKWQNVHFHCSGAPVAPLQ
Sequence of TRAF2 and NCK-interacting protein kinase (Homo sapiens) (Q9UKE5 whole entry, looked up): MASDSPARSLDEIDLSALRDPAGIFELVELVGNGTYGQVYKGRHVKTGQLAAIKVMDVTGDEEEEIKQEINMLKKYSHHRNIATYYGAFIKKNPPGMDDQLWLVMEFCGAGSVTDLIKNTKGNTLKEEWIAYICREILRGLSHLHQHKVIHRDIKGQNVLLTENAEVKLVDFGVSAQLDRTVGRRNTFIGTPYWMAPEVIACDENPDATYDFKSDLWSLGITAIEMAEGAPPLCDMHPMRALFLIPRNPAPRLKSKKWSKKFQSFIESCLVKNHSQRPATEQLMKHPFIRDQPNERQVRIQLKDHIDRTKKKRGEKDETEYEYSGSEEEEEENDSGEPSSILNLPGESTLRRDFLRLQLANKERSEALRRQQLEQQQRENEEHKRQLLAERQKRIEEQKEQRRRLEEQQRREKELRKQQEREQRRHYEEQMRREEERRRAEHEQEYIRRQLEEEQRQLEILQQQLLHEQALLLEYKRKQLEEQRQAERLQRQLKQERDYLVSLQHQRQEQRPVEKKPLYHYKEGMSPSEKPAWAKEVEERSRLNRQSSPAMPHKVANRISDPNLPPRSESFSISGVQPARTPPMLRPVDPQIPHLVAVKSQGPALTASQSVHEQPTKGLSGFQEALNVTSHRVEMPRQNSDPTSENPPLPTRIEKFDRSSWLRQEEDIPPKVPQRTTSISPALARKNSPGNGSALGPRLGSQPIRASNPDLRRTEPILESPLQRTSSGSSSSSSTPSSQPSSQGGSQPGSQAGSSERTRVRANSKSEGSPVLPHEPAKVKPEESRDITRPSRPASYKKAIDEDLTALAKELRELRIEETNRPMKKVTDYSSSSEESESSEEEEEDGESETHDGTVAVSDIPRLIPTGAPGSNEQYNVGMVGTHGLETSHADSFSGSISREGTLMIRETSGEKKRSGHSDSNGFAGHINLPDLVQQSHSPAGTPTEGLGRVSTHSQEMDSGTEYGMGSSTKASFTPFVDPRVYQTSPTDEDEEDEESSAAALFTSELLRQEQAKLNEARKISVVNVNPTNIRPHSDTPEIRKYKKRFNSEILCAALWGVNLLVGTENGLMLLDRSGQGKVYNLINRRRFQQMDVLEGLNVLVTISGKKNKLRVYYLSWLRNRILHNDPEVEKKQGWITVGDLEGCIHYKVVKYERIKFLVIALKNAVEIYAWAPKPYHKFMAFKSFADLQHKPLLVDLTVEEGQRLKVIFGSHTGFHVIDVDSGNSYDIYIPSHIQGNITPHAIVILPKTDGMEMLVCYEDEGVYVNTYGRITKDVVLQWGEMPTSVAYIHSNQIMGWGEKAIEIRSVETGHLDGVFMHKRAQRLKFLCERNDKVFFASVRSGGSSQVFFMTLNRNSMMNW
Sequence of Dual specificity protein kinase CLK1 (Homo sapiens) (P49759 whole entry, looked up): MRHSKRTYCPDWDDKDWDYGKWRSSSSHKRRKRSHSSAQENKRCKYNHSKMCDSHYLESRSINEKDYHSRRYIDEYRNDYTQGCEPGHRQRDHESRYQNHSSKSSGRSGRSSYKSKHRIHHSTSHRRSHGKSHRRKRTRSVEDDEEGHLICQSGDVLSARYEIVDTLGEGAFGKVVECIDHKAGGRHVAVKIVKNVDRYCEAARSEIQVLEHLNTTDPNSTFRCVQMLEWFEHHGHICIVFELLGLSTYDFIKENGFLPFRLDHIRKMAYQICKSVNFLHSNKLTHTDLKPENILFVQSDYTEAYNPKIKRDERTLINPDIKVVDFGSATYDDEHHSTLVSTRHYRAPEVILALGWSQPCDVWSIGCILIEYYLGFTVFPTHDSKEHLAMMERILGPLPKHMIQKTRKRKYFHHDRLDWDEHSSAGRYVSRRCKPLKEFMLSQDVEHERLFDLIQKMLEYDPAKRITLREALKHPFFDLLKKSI

With `Cn1cc(C2=C(c3cn(CCCSC(=N)N)c4ccccc34)C(=O)NC2=O)c2ccccc21`, the ΔTm is 0.1 °C in experiment [1]; 3.8 °C in experiment [2]; -0.1 °C in experiment [3]; 7.1 °C in experiment [4]; 12.8 °C in experiment [5]; 7.5 °C in [6]. The thermal shift (ΔTm) in [7] was 3.2 °C; in experiment [8] it was 2 °C; in [9], 4.3 °C; in experiment [10], -0.6 °C; in experiment [11], 9.6 °C; in experiment [12], 1.1 °C. Moreover, the shift in melting temperature (ΔTm) was found to be 10 °C in experiment [13], 1.6 °C in experiment [14] and 3.4 °C in experiment [15].
Consider `O=C1Cc2c([nH]c3ccc([N+](=O)[O-])cc23)-c2ccccc2N1`, for which the ΔTm in [1] was found to be 2.5 °C; in experiment [2] it was 6.1 °C; in experiment [3], 0.1 °C; in experiment [4] it was 1.9 °C; in experiment [5], 11.9 °C; in experiment [6], 2.3 °C. In addition, the ΔTm in [7] was found to be 1.4 °C; in [8], 0.3 °C; in experiment [9] it was 11.4 °C; in experiment [10] it was 1.3 °C; in [11], 2.2 °C; in [12], 0 °C. The ΔTm in [13] was 2.4 °C; in experiment [14], 0.2 °C; in experiment [15], 2.1 °C.
Consider `CN(C)CC1CCn2c(c(C3=C(c4c[nH]c5ccccc45)C(=O)NC3=O)c3ccccc32)C1` (stereo not given), for which the shift in melting temperature (ΔTm) in experiment [1] is -0.8 °C; in experiment [2], 0.5 °C; in experiment [3], -0.8 °C; in [4], 6.4 °C; in experiment [5], 9.2 °C; in experiment [6], 4.1 °C. Moreover, the thermal shift (ΔTm) in [7] stood at 0.8 °C; in experiment [8] it was 1 °C; in experiment [9] it was 5.3 °C; in [10], 0.4 °C; in experiment [11], 2 °C; in [12], 0 °C. Besides, the ΔTm was found to be 7.4 °C in experiment [13], 0.5 °C in [14] and 1.5 °C in [15].
With `Nc1cc2ncnc(Nc3cccc(Br)c3)c2cc1N`, the shift in melting temperature (ΔTm) is -1 °C in experiment [1]; 0.5 °C in [2]; -0.2 °C in experiment [3]; 0.1 °C in experiment [4]; 1.2 °C in [5]; 6.1 °C in experiment [6]. Further, the ΔTm was 0.8 °C in experiment [7]; -0.4 °C in experiment [8]; 7.7 °C in experiment [9]; 4.2 °C in experiment [10]; 2.2 °C in experiment [11]; -1.6 °C in experiment [12]. Moreover, the thermal shift (ΔTm) is 0.9 °C in [13], -0.3 °C in experiment [14] and 0.6 °C in experiment [15].
As for `O=C1Nc2ccccc2/C1=C1/Nc2ccccc2/C1=N\O`, the ΔTm in experiment [1] was 5.9 °C; in experiment [2], 5.9 °C; in experiment [3], 0 °C; in experiment [4], 2.8 °C; in experiment [5] it was 11 °C; in experiment [6] it was 6.2 °C. For the same compound, the thermal shift (ΔTm) in [7] is 5.9 °C; in [8], 2.1 °C; in [9], 9.9 °C; in experiment [10], 7 °C; in [11] it was 7.7 °C; in experiment [12], 2.8 °C. Further, the values for the ΔTm in experiment [13], in experiment [14] and in experiment [15] were 7.5 °C, 1.7 °C and 3.4 °C, respectively.
Turning to `O=Nc1c(-c2c(O)[nH]c3ccccc23)[nH]c2ccccc12`, the thermal shift (ΔTm) was 4.3 °C in experiment [1]; 5.9 °C in experiment [2]; 0.5 °C in experiment [3]; -0.3 °C in experiment [4]; 11.5 °C in [5]; 4.2 °C in experiment [6]. In addition, the ΔTm was 3.3 °C in [7]; 1.6 °C in [8]; 8.9 °C in experiment [9]; 2.7 °C in experiment [10]; 4 °C in experiment [11]; 2.8 °C in experiment [12]. In addition, the shift in melting temperature (ΔTm) in experiment [13] came to 5.5 °C; in [14] it was 0.1 °C; in experiment [15], 1.7 °C.
On to `CC(C)n1cnc2c(NCc3ccccc3O)nc(NCCCO)nc21`, for which the ΔTm was determined as 0.2 °C in [1]; 0 °C in experiment [2]; 0.7 °C in experiment [3]; 0 °C in experiment [4]; 0.3 °C in experiment [5]; 0.5 °C in experiment [6]. Also, the ΔTm in experiment [7] is 0 °C; in experiment [8], 0.3 °C; in [9], 0 °C; in [10], 0.3 °C; in [11] it was 0.9 °C; in [12] it was -0.1 °C. The ΔTm was determined as 0.9 °C in experiment [13], 0 °C in [14] and 0.5 °C in experiment [15].
Regarding `CCOc1cc(/C=C(\C#N)C(N)=O)cc(CSc2ccccc2)c1O`, the ΔTm in experiment [1] is -0.1 °C; in [2], 0.2 °C; in experiment [3], 0.5 °C; in experiment [4], -0.5 °C; in experiment [5], 1.1 °C; in experiment [6], 1.1 °C. For the same compound, the ΔTm is 0 °C in [7]; -0.2 °C in experiment [8]; 0.6 °C in [9]; -0.5 °C in [10]; 0 °C in experiment [11]; -0.2 °C in [12]. In addition, the ΔTm is 2.1 °C in experiment [13], -0.1 °C in experiment [14] and -0.5 °C in experiment [15].
With `CC(C)n1cnc2c(NCc3ccccc3)nc(NCCCO)nc21`, the shift in melting temperature (ΔTm) was 2 °C in experiment [1]; 0.4 °C in experiment [2]; 0.2 °C in [3]; 0 °C in experiment [4]; 0.5 °C in [5]; -0.4 °C in experiment [6]. In addition, the ΔTm in experiment [7] was 0.2 °C; in [8], 0.1 °C; in experiment [9], 0 °C; in [10], 0.1 °C; in [11], 2.6 °C; in [12] it was -0.1 °C. Besides, the values for the thermal shift (ΔTm) in [13], in experiment [14] and in experiment [15] were 1 °C, -0.1 °C and -0.6 °C, respectively.
`O=S(=O)(NCCNC/C=C/c1ccc(Br)cc1)c1cccc2cnccc12`: the thermal shift (ΔTm) is -0.1 °C in experiment [1]; 0 °C in [2]; 0.6 °C in experiment [3]; -0.6 °C in experiment [4]; -0.6 °C in [5]; -0.4 °C in [6]. Further, the shift in melting temperature (ΔTm) in experiment [7] was -0.4 °C; in experiment [8], -0.2 °C; in experiment [9], 1.7 °C; in experiment [10], 0.9 °C; in experiment [11], 1.1 °C; in experiment [12], -0.2 °C. In addition, the values for the ΔTm in [13], in experiment [14] and in [15] were 2.2 °C, -0.3 °C and 1 °C, respectively.
